Experimental data from patent publication US20230102554A1 (GB002, INC., priority 2019, published 2023).

Assays:
[1] = molecular target: T1, Human PDGFRα, cytoplasmic domain (GST-PDGFRα) (Homo sapiens, UniProt P16234); assay: Human PDGFRα biochemical inhibition assay (off-chip Mobility Shift Assay)
T1 construct: made in house

[2] = molecular target: T2, Human PDGFRβ, cytoplasmic domain (GST-PDGFRβ) (Homo sapiens, UniProt P09619); assay: Human PDGFRβ biochemical inhibition assay (off-chip Mobility Shift Assay)
T2 construct: made in house
Description: Human PDGFRβ Biochemical Inhibition Assay
The compounds described herein were tested for the ability to inhibit activity of PDGFRβ which was achieved via use of an off-chip Mobility Shift Assay (MSA). Human PDGFRβ, cytoplasmic domain [557-1106 (end) amino acids of accession number NP_002600.1 (SEQ ID NO: 3)] was expressed as N-terminal GST-fusion protein (88 kDa) using baculovirus expression system (SEQ ID NO: 4). GST-PDGFRβ was purified by using glutathione sepharose chromatography. Test compounds were dissolved in and diluted with dimethylsulfoxide (DMSO) to achieve 1 mM concentration. Then the solution was further diluted 25-fold with assay buffer to make the final test compound solution. The reference compound, Staurosporine, used as the assay positive control was prepared similarly. The 4× compound solution/substrate (CSKtide, 1000 nM)/ATP (Km ATP)/Mg Metal (5 mM) was prepared with kit buffer (20 mM HEPES, 0.01% Triton X-100, 5 mM DTT, pH 7.5), and 2× kinase solution was prepared with assay buffer (20 mM HEPES, 0.01% Triton X-100, 1 mM DTT, pH 7.5). The 5 μL of 4× compound solution, […] of 4× Substrate/ATP/Metal solution, and […] of 2× kinase solution were mixed and incubated in a well of polypropylene 384 well microplate for 1 hour at room temperature. […] of Termination Buffer (QuickScout Screening Assist MSA; Carna Biosciences) was added to the well. The reaction mixture was applied to LabChip™ system (Perkin Elmer), and the product and substrate peptide peaks were separated and quantitated. The kinase reaction was evaluated by the product ratio calculated from peak heights of product(P) and substrate(S) peptides (P/(P+S)). The readout value of reaction control (complete reaction mixture) was set as a 0% inhibition, and the readout value of background (Enzyme(−)) was set as a 100% inhibition, then the percent inhibition of each test solution was calculated.
With respect to PDGFRβ activity: “+++” denotes an IC50 of less than 300 nM; “++” denotes an IC50 of from 300 nM to less than 1000 nM; and “+” denotes an IC50 of 1000 nM or more.

T1 sequence (P16234 550-1089 T674I): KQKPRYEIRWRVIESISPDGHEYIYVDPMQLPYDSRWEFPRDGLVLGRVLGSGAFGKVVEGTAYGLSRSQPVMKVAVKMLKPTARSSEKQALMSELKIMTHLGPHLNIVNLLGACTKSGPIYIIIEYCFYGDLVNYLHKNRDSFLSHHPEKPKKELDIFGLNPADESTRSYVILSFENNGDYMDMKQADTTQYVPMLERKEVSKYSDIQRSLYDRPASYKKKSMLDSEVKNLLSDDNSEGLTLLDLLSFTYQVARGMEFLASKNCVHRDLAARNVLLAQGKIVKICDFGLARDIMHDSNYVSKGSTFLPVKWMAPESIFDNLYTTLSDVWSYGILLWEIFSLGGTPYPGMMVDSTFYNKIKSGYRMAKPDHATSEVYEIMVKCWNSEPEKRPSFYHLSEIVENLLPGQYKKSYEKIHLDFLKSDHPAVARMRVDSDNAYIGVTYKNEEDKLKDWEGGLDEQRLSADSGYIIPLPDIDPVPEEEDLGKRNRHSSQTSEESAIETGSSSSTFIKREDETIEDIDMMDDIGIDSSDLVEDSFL
T2 sequence (P09619 with tags, fused parts or gaps): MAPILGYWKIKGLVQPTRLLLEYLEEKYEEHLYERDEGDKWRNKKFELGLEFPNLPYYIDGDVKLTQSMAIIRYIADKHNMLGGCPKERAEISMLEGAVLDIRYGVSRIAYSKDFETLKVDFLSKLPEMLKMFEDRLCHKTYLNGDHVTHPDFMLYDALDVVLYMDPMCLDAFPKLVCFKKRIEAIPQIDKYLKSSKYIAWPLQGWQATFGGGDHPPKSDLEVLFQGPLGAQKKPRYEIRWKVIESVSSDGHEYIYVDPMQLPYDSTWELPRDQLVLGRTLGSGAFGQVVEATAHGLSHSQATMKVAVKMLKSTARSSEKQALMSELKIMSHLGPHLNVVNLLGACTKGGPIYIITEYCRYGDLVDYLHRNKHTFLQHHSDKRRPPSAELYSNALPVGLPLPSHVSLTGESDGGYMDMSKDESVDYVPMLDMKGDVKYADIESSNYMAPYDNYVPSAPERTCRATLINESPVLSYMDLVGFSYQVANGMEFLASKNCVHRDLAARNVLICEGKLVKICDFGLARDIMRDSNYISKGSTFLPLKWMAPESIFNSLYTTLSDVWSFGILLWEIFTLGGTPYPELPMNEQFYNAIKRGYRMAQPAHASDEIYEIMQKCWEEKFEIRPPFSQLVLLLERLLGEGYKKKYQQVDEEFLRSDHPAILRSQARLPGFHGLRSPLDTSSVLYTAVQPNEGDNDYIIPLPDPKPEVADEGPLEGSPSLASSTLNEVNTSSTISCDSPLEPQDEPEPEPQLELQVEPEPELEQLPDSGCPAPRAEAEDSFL

| SMILES | IC50 [1] [µM] | IC50 [2] [µM] |
| --- | --- | --- |
| COc1ccc2nc(N[C@@H](C)c3cccc(NC(=O)c4cncc(C)c4)c3)cnc2c1 [Compound 33, (S)-N-(3-(1-((6-methoxyquinoxalin-2-yl)amino)ethyl)phenyl)-5-methylnicotinamide] | < 0.3 | < 0.3 |
| Cc1cncc(C(=O)Nc2cccc([C@H](C)Nc3cnc4ccc(C(F)(F)F)cc4n3)c2)c1 [Compound 34, (S)-5-methyl-N-(3-(1-((7-(trifluoromethyl)quinoxalin-2-yl)amino)ethyl)phenyl) nicotinamide] | < 0.3 | 0.3 to 1 |
| Cc1cncc(C(=O)Nc2cccc([C@H](C)Nc3cnc4cc(C(F)(F)F)ccc4n3)c2)c1 [Compound 35, (S)-5-methyl-N-(3-(1-((6-(trifluoromethyl)quinoxalin-2-yl)amino)ethyl)phenyl) nicotinamide] | < 0.3 | < 0.3 |
| Cc1cncc(C(=O)Nc2cccc([C@H](C)Nc3cnc4cc(F)c(F)cc4n3)c2)c1 [Compound 36, (S)-N-(3-(1-((6,7-difluoroquinoxalin-2-yl)amino)ethyl)phenyl)-5-methylnicotinamide] | < 0.3 | < 0.3 |
| Cc1cncc(C(=O)Nc2cccc([C@H](C)Nc3cnc4cccc(Cl)c4n3)c2)c1 [Compound 37, (S)-N-(3-(1-((8-chloroquinoxalin-2-yl)amino)ethyl)phenyl)-5-methylnicotinamide] | < 0.3 | < 0.3 |
| Cc1cncc(C(=O)Nc2cccc([C@H](C)Nc3cnc4ccc(C)cc4n3)c2)c1 [Compound 38, (S)-5-methyl-N-(3-(1-((7-methylquinoxalin-2-yl)amino)ethyl)phenyl)nicotinamide] | < 0.3 | < 0.3 |
| Cc1cncc(C(=O)Nc2cccc([C@H](C)Nc3cnc4ccc(Br)cc4n3)c2)c1 [Compound 39, (S)-N-(3-(1-((7-bromoquinoxalin-2-yl)amino)ethyl)phenyl)-5-methylnicotinamide] | < 0.3 | < 0.3 |
| Cc1cncc(C(=O)Nc2cccc([C@H](C)Nc3cnc4cc(F)ccc4n3)c2)c1 [Compound 40, (S)-N-(3-(1-((6-fluoroquinoxalin-2-yl)amino)ethyl)phenyl)-5-methylnicotinamide] | < 0.3 | < 0.3 |
| Cc1cncc(C(=O)Nc2cccc([C@H](C)Nc3cnc4ccc(C5CC5)cc4n3)c2)c1 [Compound 41, (S)-N-(3-(1-((7-cyclopropylquinoxalin-2-yl)amino)ethyl)phenyl)-5-methylnicotinamide] | < 0.3 | < 0.3 |
| Cc1cncc(C(=O)Nc2cccc([C@H](C)Nc3cnc4ccc(-c5cnn(C)c5)cc4n3)c2)c1 [Compound 42, (S)-5-methyl-N-(3-(1-((7-(1-methyl-1H-pyrazol-4-yl)quinoxalin-2-yl)amino)ethyl)phenyl)nicotinamide] | < 0.3 | < 0.3 |
| COc1ccc(NC(=O)c2cncc(C)c2)cc1CNc1cnc2ccccc2n1 [Compound 43, N-(4-methoxy-3-((quinoxalin-2-ylamino)methyl)phenyl)-5-methylnicotinamide] | 0.3 to 1 | ≥ 1 |
| Cc1cncc(C(=O)Nc2cccc([C@H](C)Nc3cnc4c(n3)CCCC4)c2)c1 [Compound 44, (S)-5-methyl-N-(3-(1-((5,6,7,8-tetrahydroquinoxalin-2-yl)amino)ethyl)phenyl) nicotinamide] | < 0.3 | ≥ 1 |
| Cc1cncc(C(=O)Nc2cccc([C@H](C)Nc3cnc4c(c3)OCCN4)c2)c1 [Compound 45] | 0.3 to 1 | ≥ 1 |
| C[C@H](Nc1cnc2cnn(C)c2n1)c1cccc(NC(=O)c2cnc3ccn(C)c3c2)c1 [Compound 46, (S)-1-methyl-N-(3-(1-((1-methyl-1H-pyrazolo[3,4-b]pyrazin-6-yl)amino)ethyl)phenyl)-1H-pyrrolo[3,2-b] pyridine-6-carboxamide] | < 0.3 | < 0.3 |
| C[C@H](Nc1cnc2cnn(C)c2n1)c1cccc(NC(=O)c2cnc3cnn(C)c3c2)c1 [Compound 48, (S)-1-methyl-N-(3-(1-((1-methyl-1H-pyrazolo[3,4-b]pyrazin-6-yl)amino)ethyl)phenyl)-1H-pyrazolo[4,3-b] pyridine-6-carboxamide] | < 0.3 | < 0.3 |
| C[C@H](Nc1cnc2cnn(C)c2n1)c1cccc(NC(=O)c2cnc3ccsc3c2)c1 [Compound 49, (S)-N-(3-(1-((1-methyl-1H-pyrazolo[3,4-b]pyrazin-6-yl)amino)ethyl)phenyl) thieno[3,2-b]pyridinc-6-carboxamide] | < 0.3 | < 0.3 |
| C[C@H](Nc1cnc2cnn(C)c2n1)c1cccc(NC(=O)c2ccc3ccn(C)c3c2)c1 [Compound 50, (S)-1-methyl-N-(3-(1-((1-methyl-1H-pyrazolo[3,4-b]pyrazin-6-yl)amino)ethyl)phenyl)-1H-indole-6-carboxamide] | < 0.3 | < 0.3 |
| C[C@H](Nc1cnc2cnn(C)c2n1)c1cccc(NC(=O)C2CC2C(F)(F)F)c1 (stereo partly drawn) [Compound 52, N-(3-((S)-1-((1-methyl-1H-pyrazolo[3,4-b]pyrazin-6-yl)amino)ethyl)phenyl)-2-(trifluoromethyl)cyclopropane-1-carboxamide] | 0.3 to 1 | ≥ 1 |
| C[C@H](Nc1cnc2cnn(C)c2n1)c1cccc(NC(=O)[C@H]2C[C@H]2C(F)(F)F)c1 [Compound 53, (1S,2R)-N-(3-((S)-1-((1 methyl-1H-pyrazolo[3,4-d]pyrazin-6-yl)amino)ethyl)phenyl)-2-(trifluoromethyl)cyclopropane-1-carboxamide] | ≥ 1 | ≥ 1 |
| C[C@H](Nc1cnc2cnn(C)c2n1)c1cccc(NC(=O)N2CCCC(C(F)(F)F)C2)c1 (stereo partly drawn) [Compound 54, N-(3-((S)-1-((1-methyl-1H-pyrazolo[3,4-b]pyrazin-6-yl)amino)ethyl)phenyl)-3-(trifluoromethyl)piperidine-1-carboxamide] | < 0.3 | < 0.3 |
| C[C@H](Nc1cnc2cnn(C)c2n1)c1cccc(NC(=O)N2CCc3ccccc3C2)c1 [Compound 55, (S)-N-(3-(1-((1-methyl-1H-pyrazolo[3,4-b]pyrazin-6-yl)amino)ethyl)phenyl)-3,4-dihydroisoquinoline-2(1H)-carboxamide] | < 0.3 | < 0.3 |
| CCn1cc2ncc(N[C@@H](C)c3cccc(NC(=O)c4cnc5c(c4)CCCO5)c3)nc2n1 [Compound 56, (S)-N-(3-(1-((2-ethyl-2H-pyrazolo[3,4-b]pyrazin-6-yl)amino)ethyl)phenyl)-3,4-dihydro-2H-pyrano[2,3-b] pyridine-6-carboxamide] | < 0.3 | < 0.3 |
| CCn1cc2ncc(N[C@@H](C)c3cccc(NC(=O)c4cnc5ccccc5c4)c3)nc2n1 [Compound 57, (S)-N-(3-(1-((2-ethyl-2H-pyrazolo[3,4-b]pyrazin-6-yl)amino)ethyl)phenyl)quinoline-3-carboxamide] | < 0.3 | < 0.3 |
| CCn1cc2ncc(N[C@@H](C)c3cccc(NC(=O)c4cnc5c(c4)CCC5)c3)nc2n1 [Compound 58, (S)-N-(3-(1-((2-ethyl-2H-pyrazolo[3,4-b]pyrazin-6-yl)amino)ethyl)phenyl)-6,7-dihydro-5H-cyclope3nta[6] pyridine-3-carboxamide] | < 0.3 | < 0.3 |
